Measured values taken from patent US6939890B2, “sPLA2 inhibitors” (Eli Lilly and Company, priority 1999, dated 2005).
Where a name gives a salt, the structure may show the parent alone.

Assays:
[1] = target: T1, recombinant human secreted phospholipase A2 (Homo sapiens, UniProt P14555); assay: chromogenic assay for inhibitors of recombinant human secreted phospholipase A2 (diheptanoyl thio-PC/DTNB, 96 well microtiter plates); type: biochemical; conditions: included in the table for purposes of comparison only
T1 sequence (P14555 21-144): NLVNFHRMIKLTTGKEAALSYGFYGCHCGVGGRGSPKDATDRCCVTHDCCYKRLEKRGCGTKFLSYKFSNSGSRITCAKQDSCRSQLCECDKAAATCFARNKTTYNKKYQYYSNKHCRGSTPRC
Excerpt: The following chromogenic assay procedure was used to identify and evaluate inhibitors of recombinant human secreted phospholipase A2. The assay described herein has been adapted for high volume screening using 96 well microtiter plates. A general description of this assay method is found in the article, “Analysis of Human Synovial Fluid Phospholipase A2 on Short Chain Phosphatidylcholine-Mixed Micelles: Development of a Spectrophotometric Assay Suitable for a Microtiterplate Reader”, by Laure J. Reynolds, Lori L. Hughes, and Edward A Dennis, Analytical Biochemistry, 204, pp. 190-197, 1992 (the disclosure of which is incorporated herein by reference): […]
A measured volume of racemic dipheptanoyl thio PC supplied in chloroform at a concentration of 100 mg/ml is taken to dryness and redissolved in 10 millimolar […]
• 1. […] Read absorbance of wells at 405 nanometers with an automatic plate reader.
All compounds were tested in triplicate. […] Compounds initially found to be active were reassayed to confirm their activity and, if sufficiently active, IC50 values were determined. […] In all cases, % inhibition measured at 405 nanometers generated by enzyme reactions containing inhibitors relative to the uninhibited control reactions was determined. […] IC50 were determined by plotting log concentration versus inhibition values in the range from 10-90% inhibition.

SMILES	melting point	inhibiting sPLA2 (statement in words) [1]
CCc1c(C(=O)C(N)=O)c2c(OCC(=O)N(C)OCc3ccccc3)cccc2n1Cc1ccccc1 [Compound 2Ak, 2-[[3-(Aminooxoacetyl)-2-ethyl-1-(phenylmethyl)-1H-indol-4-yl]oxy]-N-(methyl)-N-(phenylmethyloxy)acetamide]	186.5 to 188.5 °C	
CCc1c(C(=O)C(N)=O)c2c(OCC(=O)N(O)C(C)C)cccc2n1Cc1ccccc1 (as salt: hydrochloride) [Compound 2Ag, 2-[[3-(Aminooxoacetyl)-2-ethyl-1-(phenylmethyl)-1H-indol-4-yl]oxy]-N-(hydroxy)-N-(2-propyl)acetamide]	202 °C (dec.)	
CCc1c(C(=O)C(N)=O)c2c(OCC(=O)OC)cccc2n1Cc1ccccc1 [1 (SM), [[3-(2-Amino-1,2-dioxoethyl)-2-ethyl-1-(phenylmethyl)-1H-indol-4-yl]oxy]acetic acid methyl ester]		highly active
CCc1c(CC(N)=O)c2c(OCC(=O)NO)cccc2n1Cc1ccccc1 [Compound 2Ba, 2-[[3-(2-Amino-2-oxoethyl)-2-ethyl-1-(phenylnmethyl)-1H-indol-4-yl]oxy]-N-(hydroxy)acetamide]	187 to 189 °C	
CCc1c(C(=O)C(N)=O)c2c(OCC(=O)NOc3ccccc3)cccc2n1Cc1ccccc1 (as salt: hydrochloride) [Compound 2Al, 2-[[3-(Aminooxoacetyl)-2-ethyl-1-(phenylmethyl)-1H-indol-4-yl]oxy]-N-(phenyloxy)acetamide]	205 °C (dec.)	
CCc1c(C(=O)C(N)=O)c2c(OCC(=O)N(C)O)cccc2n1Cc1ccccc1 (as salt: hydrochloride) [Compound 2Ad, 2-[[3-(Aminooxoacetyl)-2-ethyl-1-(phenylmethyl)-1H-indol-4-yl]oxy]-N-(hydroxy)-N-(methyl)acetamide]	217 °C (dec.)	
CCONC(=O)COc1cccc2c1c(C(=O)C(N)=O)c(CC)n2Cc1ccccc1 (as salt: hydrochloride) [Compound 2Ae, 2-[[3-(Aminooxoacetyl)-2-ethyl-1-(phenylmethyl)-1H-indol-4-yl]oxy]-N-(ethyloxy)acetamide]	176 to 178 °C	
CCc1c(C(=O)C(N)=O)c2c(OCC(=O)NOC(C)(C)C)cccc2n1Cc1ccccc1 (as salt: hydrochloride) [Compound 2Ah, 2-[[3-(Aminooxoacetyl)-2-ethyl-1-(phenylmethyl)-1H-indol-4-yl]oxy]-N-(tert-butyloxy)acetamide]	203 to 205 °C	
CCc1c(C(=O)C(N)=O)c2c(OCC(=O)N(C)OC)cccc2n1Cc1ccccc1 (as salt: hydrochloride) [Compound 2Ac, 2-[[3-(Aminooxoacetyl)-2-ethyl-1-(phenylmethyl)-1H-indol-4-yl]oxy]-N-(methyl)-N-(methyloxy)acetamide]	168 to 170 °C	
CCc1c(C(=O)C(N)=O)c2c(OCC(=O)NOCc3ccccc3)cccc2n1Cc1ccccc1 (as salt: hydrochloride) [Compound 2Aj, 2-[[3-(Aminooxoacetyl)-2-ethyl-1-(phenylmethyl)-1H-indol-4-yl]oxy]-N-(phenylmethyloxy)acetamide]	167 to 169 °C	
CCc1c(C(=O)C(N)=O)c2c(OCC(=O)N(O)C3CCCCC3)cccc2n1Cc1ccccc1 (as salt: hydrochloride) [Compound 2An, 2-[[3-(Aminooxoacetyl)-2-ethyl-1-(phenylmethyl)-1H-indol-4-yl]oxy]-N-(cyclohexyl)-N-(hydroxy)acetamide]	210 °C (dec.)	
CCc1c(C(=O)C(N)=O)c2c(OCC(=O)N(C)Oc3ccccc3)cccc2n1Cc1ccccc1 [Compound 2Am, 2-[[3-(Aminooxoacetyl)-2-ethyl-1-(phenylmethyl)-1H-indol-4-yl]oxy]-N-(methyl)-N-(phenyloxy)acetamide]	146 to 147.5 °C	
CCc1c(C(=O)C(N)=O)c2c(OCC(=O)NOC)cccc2n1Cc1ccccc1 [Compound 2Ab, 2-[[3-(Aminooxoacetyl)-2-ethyl-1-(phenylmethyl)-1H-indol-4-yl]oxy]-N-(methyloxy)acetamide]	228 °C (dec.)	
C=CCONC(=O)COc1cccc2c1c(C(=O)C(N)=O)c(CC)n2Cc1ccccc1 (as salt: hydrochloride) [Compound 2Af, 2-[[3-(Aminooxoacetyl)-2-ethyl-1-(phenylmethyl)-1H-indol-4-yl]oxy]-N-(2-propenyloxy)acetamide]	175 to 177 °C	
